Experimental data published in PubChem BioAssay (NCI).
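Compound exposure: 48 hours, 5 concentrations, 96-well plates. GI50: concentration for 50% inhibition of growth. TGI marks complete inhibition of growth.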

Experiments:
Test in all cases: DTP human tumour cell line panel, 48 h
CCRF-CEM leukemia = test system: CCRF-CEM leukemia
EKVX NSCLC = test system: EKVX NSCLC
K-562 leukemia = test system: K-562 leukemia
LOX IMVI melanoma = test system: LOX IMVI melanoma
NCI-H460 lung = test system: NCI-H460 lung
OVCAR-5 ovarian = test system: OVCAR-5 ovarian
OVCAR-8 ovarian = test system: OVCAR-8 ovarian
SF-268 CNS = test system: SF-268 CNS
SN12C renal = test system: SN12C renal
HOP-92 NSCLC = test system: HOP-92 NSCLC

NC(N)=NCCCC(NCc1c2ccccc2[n+]([O-])c2ccccc12)C(=O)O (configuration not stated)
TGI (CCRF-CEM leukemia): 83.3 µM | TGI (EKVX NSCLC): > 100 µM | TGI (K-562 leukemia): > 100 µM | TGI (LOX IMVI melanoma): > 100 µM | TGI (NCI-H460 lung): > 100 µM | TGI (OVCAR-5 ovarian): > 100 µM | TGI (OVCAR-8 ovarian): > 100 µM | TGI (SF-268 CNS): > 100 µM | TGI (SN12C renal): > 100 µM

COc1cc(O)c2c(c1O)C(=O)c1cc(C)ncc1C2=O
TGI (CCRF-CEM leukemia): > 50 µM | TGI (EKVX NSCLC): > 50 µM | TGI (K-562 leukemia): > 50 µM | TGI (LOX IMVI melanoma): 45.2 µM | TGI (NCI-H460 lung): > 50 µM | TGI (OVCAR-5 ovarian): > 50 µM | TGI (OVCAR-8 ovarian): > 50 µM | TGI (SF-268 CNS): > 50 µM | TGI (SN12C renal): > 50 µM

c1ccc(C2=NN[C@H](c3cn(-c4ccccc4)nc3-c3ccccc3)C2)cc1
GI50 (CCRF-CEM leukemia): > 100 µM | TGI (CCRF-CEM leukemia): > 100 µM | GI50 (EKVX NSCLC): 4 µM | TGI (EKVX NSCLC): > 100 µM | GI50 (HOP-92 NSCLC): 2.72 µM | TGI (HOP-92 NSCLC): 8.07 µM | GI50 (K-562 leukemia): > 100 µM | TGI (K-562 leukemia): > 100 µM | GI50 (LOX IMVI melanoma): 3.33 µM | TGI (LOX IMVI melanoma): > 100 µM | GI50 (NCI-H460 lung): 4.26 µM | TGI (NCI-H460 lung): > 100 µM | GI50 (OVCAR-8 ovarian): 3.64 µM | TGI (OVCAR-8 ovarian): > 100 µM | GI50 (SF-268 CNS): 5.98 µM | TGI (SF-268 CNS): > 100 µM | GI50 (SN12C renal): 4.18 µM | TGI (SN12C renal): > 100 µM

C=CCCCCn1c2ccccc2c2c(C)c3c[n+](C)ccc3c(C)c21
TGI (CCRF-CEM leukemia): 2.02 µM | TGI (HOP-92 NSCLC): 0.783 µM | TGI (K-562 leukemia): 1.29 µM | TGI (OVCAR-5 ovarian): 3.26 µM | TGI (OVCAR-8 ovarian): 1.28 µM | TGI (SF-268 CNS): 1.56 µM

CCCCCCCSCC1OC(n2cnc3c(N)ncnc32)C(O)C1O (configuration not stated)
TGI (CCRF-CEM leukemia): > 100 µM | TGI (EKVX NSCLC): 56.2 µM | TGI (HOP-92 NSCLC): 58 µM | TGI (K-562 leukemia): > 100 µM | TGI (LOX IMVI melanoma): > 100 µM | TGI (NCI-H460 lung): 42.1 µM | TGI (OVCAR-5 ovarian): > 100 µM | TGI (OVCAR-8 ovarian): 54.1 µM | TGI (SF-268 CNS): > 100 µM | TGI (SN12C renal): 65.4 µM

CCCC(=O)[O-].CCCC(=O)[O-].N.N.N.N.[Co+3].[O-][Cl+3]([O-])([O-])[O-]
TGI (CCRF-CEM leukemia): > 100 µM | TGI (EKVX NSCLC): > 100 µM | TGI (HOP-92 NSCLC): > 100 µM | TGI (K-562 leukemia): > 100 µM | TGI (LOX IMVI melanoma): > 100 µM | TGI (NCI-H460 lung): > 100 µM | TGI (OVCAR-5 ovarian): > 100 µM | TGI (OVCAR-8 ovarian): > 100 µM | TGI (SF-268 CNS): > 100 µM | TGI (SN12C renal): > 100 µM

Oc1c2c(c3c4c1N=CC=4CCN=3)C1(C=C(Br)C(O)C(Br)=C1)CCN2 (configuration not stated)
TGI (CCRF-CEM leukemia): 5.79 µM | TGI (EKVX NSCLC): 4.94 µM | TGI (HOP-92 NSCLC): 8.08 µM | TGI (K-562 leukemia): > 21 µM | TGI (LOX IMVI melanoma): 3.09 µM | TGI (NCI-H460 lung): 8.47 µM | TGI (OVCAR-5 ovarian): 4.49 µM | TGI (OVCAR-8 ovarian): 2.91 µM | TGI (SF-268 CNS): 5.75 µM | TGI (SN12C renal): 3.44 µM
